assay: CMR value (relative to BAY K 8644); format: ADME

| CMR | Compound |
| --- | --- |
| 10.44 | COC(=O)c1c(C)[nH]c(C)c1C(=O)c1ccccc1[S+]([O-])c1ccccc1 (stereo unspecified) |
| 10.9 | COC(=O)c1c(C)[nH]c(C)c1C(=O)c1ccccc1[S+]([O-])Cc1ccccc1 (stereo unspecified) |
| 9.75 | COC(=O)c1c(C)[nH]c(C)c1C(=O)c1ccccc1Oc1ccccc1 |
| 10.43 | COC(=O)c1c(C)[nH]c(C)c1C(=O)c1ccccc1Cc1ccc(N)cc1 |
| 9.75 | COC(=O)c1c(C)[nH]c(C)c1C(=O)c1ccccc1Nc1ccccn1 |
| 10.47 | COC(=O)c1c(C)[nH]c(C)c1C(=O)c1ccccc1Oc1ccc([N+](=O)[O-])cc1 |
| 10.78 | COC(=O)c1c(C)[nH]c(C)c1C(=O)c1ccccc1Cc1ccccc1[N+](=O)[O-] |
| 10.21 | COC(=O)c1c(C)[nH]c(C)c1C(=O)c1ccccc1OCc1ccccc1 |
| 10.87 | COC(=O)c1c(C)[nH]c(C)c1C(=O)c1ccccc1SCc1ccccc1 |
| 8.01 | COC(=O)c1c(C)[nH]c(C)c1C(=O)c1ccc(C)cc1C |
| 10.09 | COC(=O)c1c(C)[nH]c(C)c1C(=O)c1ccc(F)cc1Cc1ccc(F)cc1 |
| 10.06 | COC(=O)c1c(C)[nH]c(C)c1C(=O)c1ccccc1NC1CCCCC1 |
| 10.08 | COC(=O)c1c(C)[nH]c(C)c1C(=O)c1ccccc1Cc1ccc(F)cc1 |
| 7.877 | COC(=O)c1c(C)[nH]c(C)c1C(=O)c1ccc(F)cc1Br |
| 10.62 | COC(=O)c1c(C)[nH]c(C)c1C(=O)c1ccccc1OS(=O)(=O)c1ccc(C)cc1 |
| 11.13 | COC(=O)c1c(C)[nH]c(C)c1C(=O)c1ccccc1Sc1ccc([N+](=O)[O-])cc1 |
| 9.96 | COC(=O)c1c(C)[nH]c(C)c1C(=O)c1ccccc1Nc1ccccc1 |
| 8.3 | COC(=O)c1c(C)[nH]c(C)c1C(=O)c1ccc([N+](=O)[O-])cc1Cl |

| CMR | Compound |
| --- | --- |
| 10.79 | COC(=O)c1c(C)[nH]c(C)c1C(=O)c1ccccc1Cc1ccc([N+](=O)[O-])cc1 |
| 7.58 | COC(=O)c1c(C)[nH]c(C)c1C(=O)c1ccccc1C |
| 7.1 | COC(=O)c1c(C)[nH]c(C)c1C(=O)c1ccccc1F |
| 8.39 | COC(=O)c1c(C)[nH]c(C)c1C(=O)c1ccccc1I |
| 9.6 | COC(=O)c1c(C)[nH]c(C)c1C(=O)c1ccccc1-c1ccccc1 |
| 10.52 | COC(=O)c1c(C)[nH]c(C)c1C(=O)c1ccccc1CCc1ccccc1 |
| 10.93 | COC(=O)c1c(C)[nH]c(C)c1C(=O)c1ccccc1S(=O)(=O)Cc1ccccc1 |
| 10.4 | COC(=O)c1c(C)[nH]c(C)c1C(=O)c1ccccc1C(=O)Oc1ccccc1O |
| 10.4 | COC(=O)c1c(C)[nH]c(C)c1C(=O)c1ccccc1Sc1ccccc1 |
| 10.15 | COC(=O)c1c(C)[nH]c(C)c1C(=O)c1ccccc1CC1CCCCC1 |
| 10.08 | COC(=O)c1c(C)[nH]c(C)c1C(=O)c1ccc(F)cc1Cc1ccccc1 |
| 8.07 | COC(=O)c1c(C)[nH]c(C)c1C(=O)c1ccc(Cl)cc1Cl |
| 7.08 | COC(=O)c1c(C)[nH]c(C)c1C(=O)c1ccccc1 |
| 7.7 | COC(=O)c1c(C)[nH]c(C)c1C(=O)c1ccccc1OC |
| 7.58 | COC(=O)c1c(C)[nH]c(C)c1C(=O)c1ccccc1Cl |
| 7.6 | COC(=O)c1c(C)[nH]c(C)c1C(=O)c1ccccc1C(F)(F)F |
| 10.06 | COC(=O)c1c(C)[nH]c(C)c1C(=O)c1ccccc1Cc1ccccc1 |
| 7.86 | COC(=O)c1c(C)[nH]c(C)c1C(=O)c1ccccc1Br |
